# Measured values as given in patent publication EP0525360B1, “Novel phenylacetamide derivatives and processes for the preparation thereof” (KOREA RESEARCH INSTITUTE OF CHEMICAL TECHNOLOGY, priority 1991, dated 1993).
# Where a name gives a salt, the structure may show the parent alone.
# Columns and labels:
# Type in all cases: in vivo
# KTC-ICR mice [1] = assay: acetic acid induced writhing test; settings: Mus musculus; oral; 0.9% acetic acid i.p. 60 minutes later; writhings during 10 minutes; mice 20 to 25g; Examples 1 to 32
# Experimental: (§1) The KTC-ICR mice derived from Charles River Breeding Laboratory in the United States and provided by Experimental Animal Laboratory of Korea Research Institute of Chemical Technology were used as test animals. […] They were tested after having been adjusted to the testing environment for a week. Food and water were given freely; and illumination was maintained on a 12-hour cycle.
# (§2) Experiments were performed in two ways: that is, the acetic acid induced writhing test and the phenyl-1,4-benzoquinone(PBQ) induced writhing test.
# Solutions for the acetic acid induced writhing test were prepared by dissolving one of the end products prepared in Examples […] in a saline solution containing 1% by weight of Tween 80 to have a concentration of 5mg/mℓ and diluting it serially with the saline solution. The test solutions were administered orally in a dose of 0.3mℓ per 30g of body weight, using the 5 ICR mice for each test. 60 minutes later, 0.9% acetic acid solution was administered intraperitoneally in a dose of 0.1mℓ per 30g of body weight. 3 minutes thereafter, the number of writhings generated during a period of 10 minutes due to the administration of acetic acid was measured. For comparison purpose, initially, saline solution alone was administered orally to the control group. 60 minutes thereafter, 0.9% acetic acid solution was administered intraperitoneally to the control group.
# (§3) The number of writhings suffered by the test group was compared with that of the control group; and the analgesic effect was measured in terms of the percentage of inhibition of writhing(I. W.). I. W. (%) =(A - B)/(A)x 100 [formula] A : the number of writhings suffered by the control group, B : the number of writhings suffered by the test group.
# (§4) These ED50 values for the test compounds are shown in the last column of Table 1.
# KTC-ICR mice [2] = assay: phenyl-1,4-benzoquinone(PBQ) induced writhing test; settings: Mus musculus; oral; 0.02% PBQ i.p. 60 minutes later; writhings during 5 minutes; mice 10 to 15g; Examples 33 to 46
# Experimental: as §1, §2
# Alternatively, solutions for the PBQ induced writhing test were prepared by dissolving one of the products synthesized in Examples 33 to 46 in a mixture of Tween 80, alcohol and distilled water (1:5:94); and administered orally to the 5 ICR mice for each test in a dose of 0.3mℓ per 30g of body weight. 60 minutes later, 0.02% PBQ solution was administered intraperitoneally in a dose of 0.1mℓ per 30g of body weight of the test animals. 5 minutes thereafter, at the temperature of 40°C, the number of writhings occurred during a period of 5 minutes due to the PBQ solution administered was measured. For comparison, only the mixture of Tween 80, alcohol and distilled water was administered orally to the control group; and, after 60 minutes, the PBQ solution was administered intraperitoneally to the control group in the same manner as mentioned above.
# as §3, §4
# test animals = assay: Behavior analysis (side-effect or toxicity scores); set-up: key to Sedation / Dyspnoea / Vasodilation / Convulsion / Salivation / Urination: behavior score; higher number = greater side effects; settings: behavior score; for Convulsion / Salivation / Urination: normal value 0; for Dyspnoea / Ptosis / Sedation / Vasodilation: normal value 4
# Text: In order to monitor a harmful side-effect or toxicity of the compounds having the formula(I), various behavioral changes in the test animals were observed. […] The higher the number is, the greater the side effects are.
# mice = assay: Tail-flick test (radiant heat); settings: p. o.
# Experimental: Radiant heat was applied using a beam of high-intensity light focused on a tail spot. The response time, defined as the interval between the onset of the stimulus and the tail flick, was measured electronically(to the nearest 0.1 second). The beam intensity was set at a level giving a mean control reaction time of 3.8±0.4 seconds. […] The percentage of inhibition was determined by the following equation: Inhibition(%) =(Reaction time of the treated group - Reaction time of the control group)/(Reaction time of the control group)x 100 [formula]
smiles,measurement,setting,value
"NCCOc1ccc(CC(=O)NCCCc2ccc(Cl)cc2)cc1 [Example 19, N-{3-(4-chlorophenyl)propyl}-4-(2-aminoethoxy)phenylacetamide]",ED50,KTC-ICR mice [1],0.03 mg/kg
"NCCOc1ccc(CC(=O)NCCCc2ccc(Cl)cc2)cc1F [Example 20, N-{3-(4-chlorophenyl)propyl}-4-(2-aminoethoxy)-3-fluorophenylacetamide]",ED50,KTC-ICR mice [1],0.07 mg/kg
"NCCOc1ccc(CC(=O)NCCCc2ccc(Cl)cc2)cc1Cl [Example 21, N-{3-(4-chlorophenyl)propyl}-4-(2-aminoethoxy)-3-chlorophenylacetamide]",ED50,KTC-ICR mice [1],0.04 mg/kg
"COc1cc(CC(=O)NCCCc2ccc(Cl)c(Cl)c2)ccc1OCCN [Example 24, N-{3-(3,4-dichlorophenyl)propyl}-4-(2-aminoethoxy)-3-methoxyphenylacetamide]",ED50,KTC-ICR mice [1],0.66 mg/kg
"COc1cc(CC(=O)NCCCc2ccc3c(c2)OCO3)ccc1OCCN [Example 25, N-{3-(3,4-methylenedioxyphenyl)propyl}-4-(2-aminoethoxy)-3-methoxyphenylacetamide]",ED50,KTC-ICR mice [1],0.8 mg/kg
"COc1cc(CC(=O)NCCCc2cccc(C(F)(F)F)c2)ccc1OCCN [Example 26, N-{3-(3-trifluoromethylphenyl)propyl}-4-(2-aminoethoxy)-3-methoxyphenylacetamide]",ED50,KTC-ICR mice [1],1.54 mg/kg
"COc1cccc(CCCNC(=O)Cc2ccc(OCCN)c(OC)c2)c1 [Example 27, N-{3-(3-methoxyphenyl)propyl}-4-(2-aminoethoxy)-3-methoxyphenylacetamide]",ED50,KTC-ICR mice [1],1.25 mg/kg
"COc1cc(CC(=O)NCCCc2cccc(OCc3ccccc3)c2)ccc1OCCN [Example 28, N-{3-(3-benzyloxyphenyl)propyl}-4-(2-aminoethoxy)-3-methoxyphenylacetamide]",ED50,KTC-ICR mice [1],28.8 mg/kg
COc1cc(CC(=O)NCCCCc2cccc(C)c2)ccc1OCCN [Example 30],ED50,KTC-ICR mice [1],1.54 mg/kg
Cc1cccc(CCCCNC(=O)Cc2ccc(OCCN)cc2)c1 [Example 31],ED50,KTC-ICR mice [1],3.3 mg/kg
Cc1ccc(CCCCNC(=O)Cc2ccc(OCCN)c(F)c2)cc1C [Example 32],ED50,KTC-ICR mice [1],1.44 mg/kg
"Cc1ccc(CCCNC(=O)Cc2ccc(OCCN)c(O)c2)cc1C [Example 33, N-{3-(3,4-dimethylphenyl)propyl}-4-(2-aminoethoxy)-3-hydroxyphenylacetamide]",ED50,KTC-ICR mice [2],0.49 mg/kg
same,Convulsion,test animals; dose 0.2mg/Kg,0
same,Salivation,test animals; dose 0.2mg/Kg,0
same,Urination,test animals; dose 0.2mg/Kg,0
same,Dyspnoea,test animals; dose 0.2mg/Kg,4
same,Ptosis,test animals; dose 0.2mg/Kg,4
same,Sedation,test animals; dose 0.2mg/Kg,4
same,Vasodilation,test animals; dose 0.2mg/Kg,4
same,Convulsion,test animals; dose 0.6mg/Kg,0
same,Salivation,test animals; dose 0.6mg/Kg,0
same,Urination,test animals; dose 0.6mg/Kg,0
same,Dyspnoea,test animals; dose 0.6mg/Kg,4
same,Ptosis,test animals; dose 0.6mg/Kg,4
same,Sedation,test animals; dose 0.6mg/Kg,5
same,Vasodilation,test animals; dose 0.6mg/Kg,4
same,Convulsion,test animals; dose 2.0mg/Kg,0
same,Salivation,test animals; dose 2.0mg/Kg,0
same,Urination,test animals; dose 2.0mg/Kg,0
same,Dyspnoea,test animals; dose 2.0mg/Kg,5
same,Ptosis,test animals; dose 2.0mg/Kg,6
same,Sedation,test animals; dose 2.0mg/Kg,7
same,Vasodilation,test animals; dose 2.0mg/Kg,4
"Cc1ccc(CCCNC(=O)Cc2ccc(OCCN)c(N)c2)cc1C [Example 37, N-{3-(3,4-dimethylphenyl)propyl}-4-(2-aminoethoxy)-3-aminophenylacetamide]",ED50,KTC-ICR mice [2],22.7 mg/kg
same,Convulsion,test animals; dose 6.7mg/Kg,0
same,Salivation,test animals; dose 6.7mg/Kg,0
same,Urination,test animals; dose 6.7mg/Kg,0
same,Dyspnoea,test animals; dose 6.7mg/Kg,4
same,Ptosis,test animals; dose 6.7mg/Kg,4
same,Sedation,test animals; dose 6.7mg/Kg,4
same,Vasodilation,test animals; dose 6.7mg/Kg,4
same,Convulsion,test animals; dose 20mg/Kg,0
same,Salivation,test animals; dose 20mg/Kg,0
same,Urination,test animals; dose 20mg/Kg,0
same,Dyspnoea,test animals; dose 20mg/Kg,4
same,Ptosis,test animals; dose 20mg/Kg,5
same,Sedation,test animals; dose 20mg/Kg,4
same,Vasodilation,test animals; dose 20mg/Kg,4
same,Convulsion,test animals; dose 60mg/Kg,0
same,Salivation,test animals; dose 60mg/Kg,0
same,Urination,test animals; dose 60mg/Kg,0
same,Dyspnoea,test animals; dose 60mg/Kg,4
same,Ptosis,test animals; dose 60mg/Kg,6
same,Sedation,test animals; dose 60mg/Kg,6
same,Vasodilation,test animals; dose 60mg/Kg,4
NCCOc1ccc(CC(=O)NCCCc2ccc(F)cc2)cc1N [Example 40-HCl],Inhibition(%),mice; dose 50 mg/Kg,67%
"NCCOc1ccc(CC(=O)NCCCc2cccc(C(F)(F)F)c2)cc1N [Example 42, N-{3-(3-trifluoromethylphenyl)propyl}-4-(2-aminoethoxy)-3-aminophenylacetamide]",Inhibition(%),mice; dose 100 mg/Kg,40%
same,Convulsion,test animals; dose 11.1mg/Kg,0
same,Salivation,test animals; dose 11.1mg/Kg,0
same,Urination,test animals; dose 11.1mg/Kg,0
same,Dyspnoea,test animals; dose 11.1mg/Kg,4
same,Ptosis,test animals; dose 11.1mg/Kg,4
same,Sedation,test animals; dose 11.1mg/Kg,4
same,Vasodilation,test animals; dose 11.1mg/Kg,4
same,Convulsion,test animals; dose 33.3mg/Kg,0
same,Salivation,test animals; dose 33.3mg/Kg,0
same,Urination,test animals; dose 33.3mg/Kg,0
same,Dyspnoea,test animals; dose 33.3mg/Kg,4
same,Ptosis,test animals; dose 33.3mg/Kg,4
same,Sedation,test animals; dose 33.3mg/Kg,4
same,Vasodilation,test animals; dose 33.3mg/Kg,4
same,Convulsion,test animals; dose 100mg/Kg,0
same,Salivation,test animals; dose 100mg/Kg,0
same,Urination,test animals; dose 100mg/Kg,0
same,Dyspnoea,test animals; dose 100mg/Kg,4
same,Ptosis,test animals; dose 100mg/Kg,7
same,Sedation,test animals; dose 100mg/Kg,7
same,Vasodilation,test animals; dose 100mg/Kg,4
"Cc1ccc(CCCNC(=O)Cc2ccc(OCCN)c([N+](=O)[O-])c2)cc1C [Example 43, N-{3-(3,4-dimethylphenyl)propyl}-4-(2-aminoethoxy)-3-nitrophenylacetamide]",ED50,KTC-ICR mice [2],22.5 mg/kg
"CN1C(C(=O)Nc2ccccn2)=C(O)c2ccccc2S1(=O)=O [Piroxicam, reference compound]",Inhibition(%),mice; dose 100 mg/Kg,0%
